In patent publication EP4420661B1, “SMALL MOLECULES TARGETING GLYCOPROTEIN VI AS ANTIPLATELET AGENTS FOR USE IN THE PREVENTION AND/OR TREATMENT OF THROMBOSIS AND ASSOCIATED PATHOLOGIES” (Universidade de Santiago de Compostela, priority 2023, dated 2024):
In brackets after ≈: the same amount, converted by molar mass.

Assays:
human platelets = assay: platelet aggregation assay, CRP-induced; type: cell-based; settings: Homo sapiens, Platelet, CRP 1 µg/mL
Experimental: Platelet aggregation assays were carried out to assess the potency of the active compounds as previously described [Barrachina et al. (2021)].
Briefly, human platelets from at least =7 healthy individuals were isolated and washed. Then, the suspension was incubated with the compounds at 10 µM at 37 ∘C for 4 min in a Chrono-log® 490-X aggregometer (Chrono-log Corporation, Havertown, PA, USA). After that, platelets were stimulated with the agonist CRP at 1 µg/mL for 5 min.

[1] = plasma protein binding, Rapid Equilibrium Dialysis (RED), human; type: in vitro ADME; settings: 4h at 37°C
Experimental: (§1) Plasma from Seralab was employed in the assay and was carried out by employing Rapid Equilibrium Dialysis (RED) from Thermo Scientific.
(§2) The compounds were dissolved at 5 µM in plasma and added to the corresponding insert of the RED device. Dialysis buffer was added to the corresponding insert of the RED device. Plate was incubated for 4h at 37°C.
(§3) After the incubation period 50 µL aliquots of each chamber were transferred to empty vials. 50 µL of dialysis buffer were added to the plasma samples and 50 µL of plasma were added to the buffer samples. 300 µL of acetonitrile were added to all the samples and centrifuged at 4000 rpm 100 µL aliquots of the supernatants were transferred to a LC analysis plate. Samples were analyzed in a UPLC/MS/MS. Stationary phase: Acquity UPLC® BEHC18 1,7 µm (2.1 mm x 50 mm) (Waters). Gradient: A (H2O + 0.1% Formic acid); B (ACN + 0.1% Formic acid); Flow: 0.6mL/min Table 8: UPLC gradient / Protein binding assay
(§4) The chromatographic equipment employed was an ACQUITY UPLC / Xevo TQD System. Compound concentrations were calculated from the MS peak areas. Table 9: Plasma protein binding of the compounds of formula (I) in rat, mice, dogs and humans / (*) low recovery

Plasma protein [2] = assay: as above; type: in vitro ADME; settings: 5 µM, 4h at 37°C
Experimental: as §1, §2, §3, §4

[3] = plasma protein binding, Rapid Equilibrium Dialysis (RED), dog; type: in vitro ADME; settings: 4h at 37°C
Experimental: as §1, §2, §3, §4

Plasma protein [4] = assay: as above; type: in vitro ADME; settings: 5 µM, 4h at 37°C
Experimental: as §1, §2, §3, §4

CYP1A2 = biological target: T1, CYP1A2 (Homo sapiens, UniProt P05177); assay: CYP inhibition, liver microsomes, substrate cocktail; type: in vitro ADME
T1 construct: 0.5 mg protein/mL of liver microsomes (HLM Xenotech); tissue Xenotech; host or cells: liver microsomes
T1 sequence (P05177 1-516): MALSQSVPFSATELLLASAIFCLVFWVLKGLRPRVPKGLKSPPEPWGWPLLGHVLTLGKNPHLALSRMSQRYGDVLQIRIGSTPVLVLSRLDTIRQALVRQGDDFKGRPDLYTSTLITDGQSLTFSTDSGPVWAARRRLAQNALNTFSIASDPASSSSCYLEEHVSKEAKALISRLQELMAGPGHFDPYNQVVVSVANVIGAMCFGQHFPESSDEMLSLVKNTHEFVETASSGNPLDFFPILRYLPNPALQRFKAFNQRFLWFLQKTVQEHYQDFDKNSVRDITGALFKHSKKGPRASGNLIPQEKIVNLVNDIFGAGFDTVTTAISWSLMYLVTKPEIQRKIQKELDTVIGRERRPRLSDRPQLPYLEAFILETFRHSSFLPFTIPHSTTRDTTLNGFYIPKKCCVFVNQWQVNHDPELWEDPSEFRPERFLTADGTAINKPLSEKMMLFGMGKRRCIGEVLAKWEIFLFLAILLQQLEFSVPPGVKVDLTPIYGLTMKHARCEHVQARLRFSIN
Experimental: (§5) Cytochrome P450 (CYP) are a family of enzymes which play a major role in the metabolism of drugs. Assessment of the potential of a compound to inhibit a specific cytochrome P450 enzyme is important as co-administration of compounds may result in one or both inhibiting the other's metabolism.
(§6) All the incubations were performed in 250 µL reaction medium containing sodium/potassium phosphate buffer 50mM, pH 7.4, 3mM MgCl2, an NADPH regeneration system 1mM NADP, 10mM glucose 6-phosphate, and 1 U/mL glucose 6-phosphate dehydrogenase, 0.5 mg protein/mL of liver microsomes (HLM Xenotech), and a substrate cocktail composed of phenacetin for CYP1A2, diclofenac for CYP2C9, S-mephenytoin for CYP2C19, bufuralol for CYP2D6, midazolam for CYP3A4, and testosterone for CYP3A4. Final concentrations of substrate in the reaction medium were: 10 µM phenacetin, 10 µM diclofenac, 5 µM bufuralol, 100µM S-Mephenytoin, 5 µM midazolam, and 50 µM testosterone. Following incubation at 37°C for 25 min, the reactions were terminated by the addition of ice-cold acetonitrile and the plate was centrifuged at 4000 g for 60 min at 4°C.
(§7) Supernatant was taken and analyzed by UPLC/MS/MS for sample quantification The chromatographic equipment employed was an UPLC QSM Waters Acquity. Stationary phase: Reverse phase Acquity UPLC® BEHC18 1,7 µm (2.1 mm x 100 mm) (Waters) Mobile phase: 0.1% Formic acid water/0.1% formic acid in acetonitrile. Flow: 0.8 ml/min. Gradient: Table 10: UPLC gradient / CYP inhibition assay

CYP2C19 = biological target: T2, CYP2C19 (Homo sapiens, UniProt P33261); assay: as above; type: in vitro ADME
T2 construct: 0.5 mg protein/mL of liver microsomes (HLM Xenotech); tissue Xenotech; host or cells: liver microsomes
T2 sequence (P33261 whole entry): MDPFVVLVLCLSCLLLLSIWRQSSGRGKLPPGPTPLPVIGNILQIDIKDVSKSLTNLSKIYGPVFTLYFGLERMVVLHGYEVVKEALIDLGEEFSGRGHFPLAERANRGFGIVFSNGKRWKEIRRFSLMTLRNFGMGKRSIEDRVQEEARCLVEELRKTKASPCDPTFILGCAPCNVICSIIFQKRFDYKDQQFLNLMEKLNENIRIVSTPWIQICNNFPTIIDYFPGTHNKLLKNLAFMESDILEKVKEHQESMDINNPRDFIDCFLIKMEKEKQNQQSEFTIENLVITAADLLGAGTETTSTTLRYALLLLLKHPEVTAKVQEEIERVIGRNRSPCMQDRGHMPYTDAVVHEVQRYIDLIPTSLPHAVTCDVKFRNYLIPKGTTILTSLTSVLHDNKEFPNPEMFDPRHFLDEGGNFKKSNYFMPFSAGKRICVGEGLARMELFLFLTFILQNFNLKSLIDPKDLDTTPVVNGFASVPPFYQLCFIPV
Experimental: as §5, §6, §7

CYP2C9 = biological target: T3, CYP2C9 (Homo sapiens, UniProt P11712); assay: as above; type: in vitro ADME
T3 construct: 0.5 mg protein/mL of liver microsomes (HLM Xenotech); tissue Xenotech; host or cells: liver microsomes
T3 sequence (P11712 whole entry): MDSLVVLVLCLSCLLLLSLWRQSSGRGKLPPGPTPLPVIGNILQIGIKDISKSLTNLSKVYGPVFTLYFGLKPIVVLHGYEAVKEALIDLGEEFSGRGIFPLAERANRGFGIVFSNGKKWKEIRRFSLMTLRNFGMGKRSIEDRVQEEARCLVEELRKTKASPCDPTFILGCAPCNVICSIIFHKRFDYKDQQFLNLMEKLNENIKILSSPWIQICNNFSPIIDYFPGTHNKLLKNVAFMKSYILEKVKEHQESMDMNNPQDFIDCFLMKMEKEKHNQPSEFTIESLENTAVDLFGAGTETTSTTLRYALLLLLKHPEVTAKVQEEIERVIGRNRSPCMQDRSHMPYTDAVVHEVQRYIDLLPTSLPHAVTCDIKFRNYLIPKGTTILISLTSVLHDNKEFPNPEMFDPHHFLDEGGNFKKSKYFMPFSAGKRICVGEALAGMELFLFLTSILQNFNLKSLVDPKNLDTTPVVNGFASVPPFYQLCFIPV
Experimental: as §5, §6, §7

CYP2D6 = biological target: T4, CYP2D6 (Homo sapiens, UniProt P10635); assay: as above; type: in vitro ADME
T4 construct: 0.5 mg protein/mL of liver microsomes (HLM Xenotech); tissue Xenotech; host or cells: liver microsomes
T4 sequence (P10635 whole entry): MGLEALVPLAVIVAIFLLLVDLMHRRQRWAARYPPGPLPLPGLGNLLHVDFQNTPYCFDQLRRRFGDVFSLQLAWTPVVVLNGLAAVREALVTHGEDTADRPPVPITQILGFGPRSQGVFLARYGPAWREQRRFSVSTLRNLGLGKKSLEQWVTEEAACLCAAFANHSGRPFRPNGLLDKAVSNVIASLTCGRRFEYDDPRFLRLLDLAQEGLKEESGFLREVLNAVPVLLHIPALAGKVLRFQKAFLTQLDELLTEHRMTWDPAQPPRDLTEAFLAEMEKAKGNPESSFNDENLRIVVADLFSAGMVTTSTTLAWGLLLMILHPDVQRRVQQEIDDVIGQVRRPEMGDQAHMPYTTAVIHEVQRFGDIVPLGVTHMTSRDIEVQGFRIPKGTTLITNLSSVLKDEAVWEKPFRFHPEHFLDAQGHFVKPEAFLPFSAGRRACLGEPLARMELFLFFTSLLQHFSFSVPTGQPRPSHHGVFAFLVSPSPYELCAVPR
Experimental: as §5, §6, §7

CYP3A4 = biological target: T5, CYP3A4 (Homo sapiens, UniProt P08684); assay: as above; type: in vitro ADME; settings: for inhibition at 25 min, 10 µM: human, liver microsomes
T5 construct: 0.5 mg protein/mL of liver microsomes (HLM Xenotech); tissue Xenotech; host or cells: liver microsomes
T5 sequence (P08684 whole entry): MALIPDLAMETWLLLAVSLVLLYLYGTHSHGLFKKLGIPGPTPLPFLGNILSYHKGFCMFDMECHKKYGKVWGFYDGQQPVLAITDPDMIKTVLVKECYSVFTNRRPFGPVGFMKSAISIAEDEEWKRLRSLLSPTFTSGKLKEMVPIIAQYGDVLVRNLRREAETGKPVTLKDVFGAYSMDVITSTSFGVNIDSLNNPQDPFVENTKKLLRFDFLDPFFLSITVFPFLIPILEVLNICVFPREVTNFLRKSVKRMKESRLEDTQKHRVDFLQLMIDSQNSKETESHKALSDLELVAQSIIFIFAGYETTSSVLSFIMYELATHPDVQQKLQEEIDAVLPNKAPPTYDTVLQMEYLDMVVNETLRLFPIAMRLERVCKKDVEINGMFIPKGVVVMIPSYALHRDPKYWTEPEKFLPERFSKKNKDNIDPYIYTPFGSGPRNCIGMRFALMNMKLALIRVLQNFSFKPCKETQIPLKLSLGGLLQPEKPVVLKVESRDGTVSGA
Experimental: as §5, §6, §7

[5] = solubility by nephelometry; settings: 1% dmso/pbs, 37 °C, aqueous buffer, kinetic from dmso stock
Experimental: Solubility was determined by nephelometry to assess its potential impact on the bioassays at active concentrations.
Then, said compounds were incubated for 2 hours at 37°C and read in a NEPHELOstar Plus (BMG LABTECH).

`O=C(Cc1ccc2c(c1)OCCO2)Nc1nc(-c2ccc3c(c2)CCC(=O)N3)cs1` [Compound (If)] gave an inhibition at 10 µM (human platelets) of 70 ± 19%, a fraction unbound at 4 h, 5 µM [1] of 0.0011 and an Unbound fraction (Plasma protein [2]) of 0.11%. It also gave a fraction unbound at 4 h, 5 µM [3] of 0.0015, an Unbound fraction (Plasma protein [4]) of 0.15% and an IC50 (CYP1A2; CYP1A2, substrate phenacetin) of over 10 µM. It also gave an inhibition at 25 min, 10 µM (CYP1A2; human, liver microsomes, pH 7.4, CYP1A2, 10µM, substrate phenacetin) of -5.3%, an IC50 (CYP2C19; CYP2C19, substrate S-mephenytoin) of over 10 µM and an inhibition at 25 min, 10 µM (CYP2C19; human, liver microsomes, pH 7.4, CYP2C19, 10µM, substrate S-mephenytoin) of -18.8%. It also gave an IC50 (CYP2C9; CYP2C9, substrate diclofenac) of over 10 µM, an inhibition at 25 min, 10 µM (CYP2C9; human, liver microsomes, pH 7.4, CYP2C9, 10µM, substrate diclofenac) of -0.7% and an IC50 (CYP2D6; CYP2D6, substrate bufuralol) of over 10 µM. It also gave an inhibition at 25 min, 10 µM (CYP2D6; human, liver microsomes, pH 7.4, CYP2D6, 10µM, substrate bufuralol) of -2.9%, an IC50 (CYP3A4; CYP3A4 (Midazolam)) of over 10 µM and an IC50 (CYP3A4; CYP3A4 (Testosterone), 25 min) of over 10 µM. The inhibition at 25 min, 10 µM (CYP3A4; pH 7.4, CYP3A4 (Midazolam)) was -9.4%, the inhibition at 25 min, 10 µM (CYP3A4; pH 7.4, CYP3A4 (Testosterone)) was -12.8% and the solubility at 2 h [5] was 61.5 µM (≈ 25.9 µg/mL).
